# Laboratory results published in patent US11129845B2, “Compositions and methods for the delivery of nucleic acids” (CASE WESTERN RESERVE UNIVERSITY, priority 2014, dated 2021).
# Experiments:
# [1] = system: HT29 colon carcinoma cells; assay: Cellular uptake of Alexa Fluor 488-siRNA via flow cytometry; format: cell-based, human; conditions: HT29, N/P=18, 4 h, 100 nM Alexa Fluor 488-siRNA
# Description: Flow cytometry was used to investigate the cellular uptake of our delivery system in HT29 colon carcinoma cells. All carriers in the library were formulated into nanoparticles by condensing Alexa Fluor 488-labeled siRNA at the optimal N/P ratio determined by the above luciferase knockdown studies. Approximately 50,000 cancer cells were seeded in 6-well plates and allowed to grow until 30-50% confluence was reached. The cancer cells were transfected with a 100 nM siRNA dose in serum-free media. After 4 h, the transfection media were aspirated and the cells were washed twice with PBS. The cells were then trypsinized, collected, and fixed with 2% paraformaldehyde in PBS, prior to flow cytometric analysis.
# [2] = Agarose gel retardation (siRNA loading); format: physicochemical
# Description: The ability of ECO to complex and condense siRNA was assessed by gel electrophoresis. […] The gel was submerged in 0.5×Tris/Borate/EDTA (TBE) buffer and run at 100 V for 25 minutes. Free siRNA was run as the control. SiRNA bands were visualized using an AlphaImager ultraviolet imaging system (Biosciences). […] Following incubation, samples were loaded onto a 1% agarose gel containing ethidium bromide and run in the same manner as described. […] At each intermittent time point, aliquots were taken and stored at −80° C. After the final aliquot was taken at 24 hours, samples were incubated for 30 minutes with heparin at a heparin/siRNA (w/w) ratio of 5 to release the complexed siRNA cargo and each sample was loaded on the 1% agarose gel and run as described above. Free siRNA was also incubated in 50% serum for 0.5, 1, 6, or 24 hours and stored and run on the gel in a similar manner.
# [3] = Ribogreen siRNA entrapment efficiency of ECO/siRNA nanoparticles; format: physicochemical
# Source text: A Ribogreen assay (Molecular Probes) was used to quantify the entrapment efficiency of siRNA within the ECO/siRNA nanoparticles. […] Free siRNA following particle formation was detected using a SpectraMax microplate reader (Molecular Devices) with an excitation of 500 nm and emission of 525 nm.
# HT29-Luc cells = assay: Live-cell confocal imaging of intracellular siRNA release; format: cell-based, human
# Description: Live-cell confocal imaging was utilized to image the intracellular release and dispersion of siRNA following transfection with the lipid carrier that performed best during the reporter knockdown studies. Approximately 50,000 HT29-Luc cells were seeded onto glass-bottom dishes (MatTek—Ashland, Mass.). Once 40% confluency was established, the cells were stained with 75 nM LysoTracker Red DND-99 (Invitrogen) for 30 min in normal growth medium. Afterwards, the cells were transfected with 100 nM Alexa Fluor 488-labeled anti-Luc siRNA in fresh serum-free media using the designed cationic lipid agent that performed the best in the above reporter knockdown experiments. Imaging commenced 5 min post-transfection using an Olympus FV1000 confocal microscope, and continued periodically over the first 2 h. Throughout the course of the study, all cells were kept alive on the microscope in a humidified weather station under normal gas conditions (5% CO2). Another image was acquired after 24 h following re-administration of the LysoTracker stain.
# Confocal microscopy was utilized to perform a time course study that analyzed the uptake and intracellular release kinetics of siRNA using the ECO delivery platform. Intracellular release and dispersion of siRNA is essential in RNA interference since the RNAi machinery is found in the cytosol. The images in FIG. 27 reveal that upon cellular uptake, the ECO nanoparticles are able to facilitate the escape of its siRNA payload from the endocytic pathway within the first 2 hours after transfection, avoiding lysosomal degradation. Such results are in congruence with the hemolytic activity data showing the membrane disruptive properties of the delivery system in pH environments characteristic of both endosomes and lysosomes.
# [4] = Zeta-potential of siRNA-lipid complexes (Malvern Zetasizer); format: physicochemical
# Description: The cationic lipid carriers are dissolved in ethanol at a stock concentration of 2.5 mM, while all siRNA is reconstituted in nuclease-free water at a 0.25 μg/μL (18.8 μM) concentration. Nanoparticles are formulated by mixing the carriers with siRNA for a period of 30 min in RNase-free phosphate buffer saline (PBS) at pre-specified N/P ratios (N=number of protonable amines in lipid, P=number of phosphate groups in the siRNA). In preparing the lipoplexes, proper dilutions were made such that the volume ratio of ethanol:water was kept constant at 1:20. Minimizing the amount of ethanol is important because it is effective in dissolving lipids, thus inhibiting particle formation. The diameters (as determined by dynamic light scattering) and zeta potentials of all nanoparticles were analyzed using a Malvern Zetasizer instrument at pH=7.4. siRNA encapsulation efficiency was calculated using a RiboGreen fluorescence-based assay from Invitrogen, designed specifically for detection of free RNA at […] wavelengths of 480 and 520 nm, respectively. Nanoparticles were created with all carriers in the library so that final siRNA concentrations were 1.6 μg/mL. A linear standard curve was utilized to calculate the encapsulation efficiencies from signal intensities measured by a SpectraMax microplate reader (Molecular Devices).
smiles,measurement,setting,value
"CCCCCCCC/C=C\CCCCCCCC(=O)N[C@@H](CS)C(=O)NCCNC(=O)CCN(CCN)CCC(=O)NCCNC(=O)[C@H](CS)NC(=O)CCCCCCC/C=C\CCCCCCCC [ECO, (1-aminoethyl)iminobis[N-(oleicylcysteinyl-1-amino-ethyl)propionamide]]","cellular uptake, mean fluorescence intensity (MFI)",[1],2571±90
same,N/P ratio at which complexed siRNA was completely prevented from migrating through the gel,[2],≥ 14
same,N/P ratio at which no siRNA signal was observed in the loading well,[2],≥ 18
same,siRNA entrapment (RiboGreen),[3]; N/P=6,82.1±4.3%
same,siRNA entrapment (RiboGreen),[3]; N/P=20,98.7±5.0%
same,time to escape of siRNA payload from the endocytic pathway,"HT29-Luc cells; HT29-Luc, after transfection",≤ 90 min
same,time to evade lysosomal degradation,"HT29-Luc cells; HT29-Luc, post-transfection",≤ 1 h
same,time to escape of siRNA payload from the endocytic pathway,HT29-Luc cells; after transfection (Example 3),≤ 120 min
same,Zeta-potential of siRNA-lipid complexes,"[4]; pH = 7.4, N/P = 2",−32.20 ± 0.90 mV
same,Zeta-potential of siRNA-lipid complexes,"[4]; pH = 7.4, N/P = 5",−16.84 ± 1.58 mV
same,Zeta-potential of siRNA-lipid complexes,"[4]; pH = 7.4, N/P = 8",28.82 ± 1.03 mV
same,Zeta-potential of siRNA-lipid complexes,"[4]; pH = 7.4, N/P = 10",25.68 ± 2.02 mV
same,Zeta-potential of siRNA-lipid complexes,"[4]; pH = 7.4, N/P = 15",25.19 ± 2.32 mV
